Molecules are shown by their SMILES.

For this assay, the target named is T1, Glycogen phosphorylase, liver form (Homo sapiens, UniProt P06737).
T1 sequence (P06737 whole entry): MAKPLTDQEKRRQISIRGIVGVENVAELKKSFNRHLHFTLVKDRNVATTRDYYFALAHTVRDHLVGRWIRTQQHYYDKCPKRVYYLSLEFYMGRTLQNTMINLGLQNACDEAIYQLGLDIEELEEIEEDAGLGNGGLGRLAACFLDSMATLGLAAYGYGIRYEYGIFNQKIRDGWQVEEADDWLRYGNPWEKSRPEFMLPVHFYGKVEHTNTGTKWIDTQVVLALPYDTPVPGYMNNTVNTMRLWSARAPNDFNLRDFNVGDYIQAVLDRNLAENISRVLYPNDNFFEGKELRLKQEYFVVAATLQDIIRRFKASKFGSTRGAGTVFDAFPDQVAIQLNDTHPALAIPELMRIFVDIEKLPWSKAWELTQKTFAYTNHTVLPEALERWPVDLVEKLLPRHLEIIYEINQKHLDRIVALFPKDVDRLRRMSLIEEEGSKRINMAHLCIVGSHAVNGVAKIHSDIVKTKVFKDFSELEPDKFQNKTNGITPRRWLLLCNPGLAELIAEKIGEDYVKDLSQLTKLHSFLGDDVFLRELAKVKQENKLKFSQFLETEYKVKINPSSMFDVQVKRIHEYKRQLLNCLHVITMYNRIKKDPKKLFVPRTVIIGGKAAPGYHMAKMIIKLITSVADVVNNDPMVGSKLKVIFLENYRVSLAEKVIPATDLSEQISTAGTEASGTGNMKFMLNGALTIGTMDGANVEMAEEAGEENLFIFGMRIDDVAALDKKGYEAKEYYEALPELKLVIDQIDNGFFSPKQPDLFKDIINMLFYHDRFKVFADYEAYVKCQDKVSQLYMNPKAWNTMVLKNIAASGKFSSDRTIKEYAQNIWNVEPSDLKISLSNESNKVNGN
Nature of the assay: Glycogen Phosphorylase Activity Assay. Conditions: pH 6.8; 22 °C. The procedure: The activity of recombinant human liver GPa in the forward direction was measured by monitoring the production of NADPH. Enzyme activity was assayed at pH 6.8 in phosphate buffer containing beta-NADP, alpha -glucose 1,6-bisphosphate, glucose-6-phophate dehydrogenase, phosphoglucomutase, glycogen, and glucose. […] The reaction was started by adding hLGPa solution (beta-glycerophosphate and cystein, pH 6.8). The reaction took place at room temperature, and the conversion of oxidized beta-NADP to reduced beta-NADPH was measured at 340 nm for 2 h. The hLGPa inhibition IC50 values were calculated using the logistic regression method and SAS software.
The compound `O=C(Nc1ccc(C(O)CO)cc1F)c1cc2cc(Cl)ccc2[nH]1` (stereo not drawn) [5-chloroindolecarboxamide, 9b] returned an IC50 of 0.42 µM.

The compound `O=C(Nc1ccc(C(O)CO)c(F)c1)c1cc2cc(Cl)ccc2[nH]1` (stereo not drawn) [5-chloroindolecarboxamide, 9g] had an IC50 of 0.34 µM.

As for `O=C(Nc1ccc(C(O)CO)cc1Cl)c1cc2cc(Cl)ccc2[nH]1` (stereo not drawn) [5-chloroindolecarboxamide, 9c], the IC50 was 1.1 µM.

The values above are taken from BindingDB's records for doi:10.1016/j.bmc.2008.04.010 (Astellas Pharma, 2008).
